In patent US10570168B2, “2′ and/or 5′ amino-acid ester phosphoramidate 3′-deoxy adenosine derivatives as anti- cancer compounds” (NuCana plc, priority 2014, dated 2020):
Read-outs that look alike come from different tables or passages of the source.

Tests used:
Type in all cases: cell-based
[1] = tested on: CCRF-CEM; experiment: CellTiterGlo viability assay, initial screening; details: Homo sapiens, read-out: IC50 (relative IC50)
Description: (§1) In vitro viability assays were performed to assess the effects of compounds on cell viability in 7 selected cell lines over 72 hr using the CellTiterGlo (CTG, Promega-G7573) assay. The tests were performed in duplicates with treatment of compounds at 9 points, 3.16 folds titration in 96 well plates over ˜72 hr. The compound starting concentrations were […]. Cell viability assay using CellTiterGlo in 96-well plate were performed. The compound treatment was 72 hrs, under standard growth conditions, and in duplicate. Compounds were dissolved to 40 mM with thawed […]. Compounds were serially diluted at 3.16 fold in thawed DMSO, and warmed to 37° C. before being dissolved in media (2 μl+200 μl). After compounds were dissolved in media (media was also warmed to 37° C.). Media containing compounds were warmed to 37° C. in incubator and then compounds in media were added to cell plates (50 μl+50 μl), in duplicates. The compounds final concentrations were from […] to 19.9 nM. All compound solubilities were checked and recorded again, then the plates were transferred to CO2 tissue culture incubator immediately and incubated for 3 days. DMSO final concentration is 0.5%.

[2] = tested on: HL-60; experiment: CellTiterGlo viability assay, initial screening; details: Homo sapiens, read-out: IC50 (relative IC50)
Description: as §1

[3] = tested on: HepG2; experiment: CellTiterGlo viability assay, initial screening; details: Homo sapiens, read-out: IC50 (relative IC50)
Description: as §1

[4] = tested on: K562; experiment: CellTiterGlo viability assay, initial screening; details: Homo sapiens, read-out: IC50 (relative IC50)
Description: as §1

[5] = tested on: KG-1; experiment: CellTiterGlo viability assay, initial screening; details: Homo sapiens, read-out: IC50 (relative IC50)
Description: as §1

[6] = tested on: MCF-7; experiment: CellTiterGlo viability assay, initial screening; details: Homo sapiens, read-out: IC50 (relative IC50)
Description: as §1

[7] = tested on: MOLT-4; experiment: CellTiterGlo viability assay, initial screening; details: Homo sapiens, read-out: IC50 (relative IC50)
Description: as §1

[8] = tested on: CCRFCEM; experiment: Solid tumour and haematological malignancy assay (CellTiterGlo); details: Homo sapiens, CCRF-CEM; for IC50: read-out: IC50 (absolute IC50); for Emax: read-out: MI %
Description: (§2) In vitro viability assay were performed to assess the effects of compounds on cell viability in selected cell lines over 72 hr using the CellTiterGlo (CTG, Promega-G7573) assay. […] Cell viability assay using CellTiterGlo in 96-well plate were performed. Compound treatment 72 hrs, standard growth conditions, duplicates. Compounds were dissolved to 40 mM with thawed 100%. […] After compounds were dissolved in media, media containing compounds were warmed to 37° C. in incubator and then compounds in media were added to cell plates ([…]) in duplicates. […] All compound solubilities were checked and recorded again, then the plates were transferred to CO2 tissue culture incubator immediately and incubated for 3 days. DMSO final concentration is 0.5%.

[9] = tested on: HT29; experiment: as above; details: Homo sapiens; for IC50: read-out: IC50 (absolute IC50); for Emax: read-out: MI %
Description: as §2

[10] = tested on: K562; experiment: as above; details: Homo sapiens; for IC50: read-out: IC50 (absolute IC50); for Emax: read-out: MI %
Description: as §2

[11] = tested on: KG-1; experiment: as above; details: Homo sapiens; for IC50: read-out: IC50 (absolute IC50); for Emax: read-out: MI %
Description: as §2

[12] = tested on: MCF7; experiment: as above; details: Homo sapiens; for IC50: read-out: IC50 (absolute IC50); for Emax: read-out: MI %
Description: as §2

[13] = tested on: MOLT-4; experiment: as above; details: Homo sapiens; for IC50: read-out: IC50 (absolute IC50); for Emax: read-out: MI %
Description: (§3) In vitro viability assay were performed to assess the effects of compounds on cell viability in selected cell lines over 72 hr using the CellTiterGlo (CTG, Promega-G7573) assay. The tests were performed in duplicates with treatment of compounds at 9 points, 3.16 folds titration in 96 well plates over ˜72 hr. The compound starting concentrations were […]. Cell viability assay using CellTiterGlo in 96-well plate were performed. Compound treatment 72 hrs, standard growth conditions, duplicates. Compounds were dissolved to 40 mM with thawed […]. Compounds were serially diluted at 3.16 fold in thawed DMSO, and warmed to 37° C. before being dissolved in media ([…]). After compounds were dissolved in media, media containing compounds were warmed to 37° C. in incubator and then compounds in media were added to cell plates ([…]) in duplicates. The compounds' final concentrations were from […] to 19.9 nM. All compound solubilities were checked and recorded again, then the plates were transferred to CO2 tissue culture incubator immediately and incubated for 3 days. DMSO final concentration is 0.5%.

[14] = tested on: NCI-H929; experiment: as above; details: Homo sapiens; for IC50: read-out: IC50 (absolute IC50); for Emax: read-out: MI %
Description: as §3

[15] = tested on: RL; experiment: as above; details: Homo sapiens; for IC50: read-out: IC50 (absolute IC50); for Emax: read-out: MI %
Description: as §3

Compound: C[C@H](NP(=O)(N[C@@H](C)C(=O)OCc1ccccc1)OC[C@@H]1CC(O)[C@H](n2cnc3c(N)ncnc32)O1)C(=O)OCc1ccccc1 (stereo in doubt) [Compound J, Benzyl 2-[({[5-(6-amino-9H-purin-9-yl)-4-hydroxyoxolan-2-yl]methoxy}({[1-(benzyloxy)-1-oxopropan-2-yl]amino})phosphoryl)amino]propanoate]
- IC50 ([1]; 72 hr): 15 to 100 µM
- IC50 ([2]; HL-60, 72 hr): 15 to 100 µM
- IC50 ([3]; HepG2, 72 hr): 15 to 100 µM
- IC50 ([4]; K562, 72 hr): 15 to 100 µM
- IC50 ([5]; KG-1, 72 hr): 15 to 100 µM
- IC50 ([6]; MCF7, MCF-7, 72 hr): 15 to 100 µM
- IC50 ([7]; MOLT-4, 72 hr): 0.1 to 5 µM

Compound: COc1nc(N)c2ncn([C@@H]3O[C@H](CO)C[C@H]3O)c2n1 [2-OMe-Cordycepin, 3′-deoxy-2-methoxyadenosine, reference compound]
- IC50 ([8]; CCRFCEM, 72 hr): > 100 µM
- Emax ([8]; CCRFCEM, 72 hr): -4%
- IC50 ([9]; HT-29, HT29, 72 hr): > 100 µM
- Emax ([9]; HT-29, HT29, 72 hr): 19%
- IC50 ([10]; K562, 72 hr): > 100 µM
- Emax ([10]; K562, 72 hr): 40%
- IC50 ([11]; KG-1, 72 hr): > 100 µM
- Emax ([11]; KG-1, 72 hr): 1%
- IC50 ([12]; MCF7, 72 hr): > 100 µM
- Emax ([12]; MCF7, 72 hr): 8%
- IC50 ([13]; MOLT-4, 72 hr): > 100 µM
- Emax ([13]; MOLT-4, 72 hr): 1%
- IC50 ([14]; NCI-H929, 72 hr): > 100 µM
- Emax ([14]; NCI-H929, 72 hr): 51%
- IC50 ([15]; 72 hr): > 100 µM
- Emax ([15]; 72 hr): 0%

Compound: C[C@H](NP(=O)(Oc1cccc2ccccc12)O[C@@H]1C[C@@H](CO)O[C@H]1n1cnc2c(N)ncnc21)C(=O)OCc1ccccc1 (stereo partly drawn) [Compound I, (2S)-benzyl 2-(((((2R,3R,5S)-2-(6-amino-9H-purin-9-yl)-5-(hydroxymethyl)tetrahydro-furan-3-yl)oxy)(naphthalen-1-yloxy)phosphoryl)amino)propanoate]
- IC50 ([1]; 72 h): 15 to 100 µM
- IC50 ([2]; HL-60, 72 h): 15 to 100 µM
- IC50 ([3]; HepG2, 72 h): 15 to 100 µM
- IC50 ([4]; K562, 72 h): 15 to 100 µM
- IC50 ([5]; KG-1, 72 h): 15 to 100 µM
- IC50 ([6]; MCF7, 72 h): 5 to 15 µM
- IC50 ([7]; MOLT-4, 72 h): 15 to 100 µM

Compound: CCCCCOC(=O)[C@H](CC(C)C)NP(=O)(OC[C@@H]1C[C@H](O)[C@H](n2cnc3c(N)nc(OC)nc32)O1)Oc1cccc2ccccc12 (stereo partly drawn) [Compound M]
- IC50 ([8]; 72 h): 5 to 15 µM
- Emax ([8]; 72 h): 100%
- IC50 ([9]; HT-29, 72 h): 15 to 100 µM
- Emax ([9]; HT-29, 72 h): 100%
- IC50 ([10]; K562, 72 h): 5 to 15 µM
- Emax ([10]; K562, 72 h): 100%
- IC50 ([11]; KG-1, 72 h): 15 to 100 µM
- Emax ([11]; KG-1, 72 h): 102%
- IC50 ([12]; MCF7, 72 h): 15 to 100 µM
- Emax ([12]; MCF7, 72 h): 100%
- IC50 ([13]; MOLT-4, 72 h): 5 to 15 µM
- Emax ([13]; MOLT-4, 72 h): 101%
- IC50 ([14]; NCI-H929, 72 h): 5 to 15 µM
- Emax ([14]; NCI-H929, 72 h): 99%
- IC50 ([15]; 72 h): 5 to 15 µM
- Emax ([15]; 72 h): 100%

Compound: CCCCCCOC(=O)[C@H](C)NP(=O)(OC[C@@H]1C[C@H](O)[C@H](n2cnc3c(N)nc(OC)nc32)O1)Oc1ccccc1 (stereo partly drawn) [Compound N, 2-O-methyl-3′-deoxyadenosine-5′-O-[phenyl(1-hexyloxy-L-alaninyl)] phosphate]
- IC50 ([8]; 72 h): 15 to 100 µM
- Emax ([8]; 72 h): 93%
- IC50 ([9]; HT-29, 72 h): 15 to 100 µM
- Emax ([9]; HT-29, 72 h): 69%
- IC50 ([10]; K562, 72 h): 15 to 100 µM
- Emax ([10]; K562, 72 h): 78%
- IC50 ([11]; KG-1, 72 h): 15 to 100 µM
- Emax ([11]; KG-1, 72 h): 96%
- IC50 ([12]; MCF7, 72 h): 15 to 100 µM
- Emax ([12]; MCF7, 72 h): 73%
- IC50 ([13]; MOLT-4, 72 h): 15 to 100 µM
- Emax ([13]; MOLT-4, 72 h): 97%
- IC50 ([14]; NCI-H929, 72 h): 15 to 100 µM
- Emax ([14]; NCI-H929, 72 h): 99%
- IC50 ([15]; 72 h): 15 to 100 µM
- Emax ([15]; 72 h): 88%

Compound: C[C@H](NP(=O)(Oc1ccccc1)O[C@@H]1C[C@@H](CO)O[C@H]1n1cnc2c(N)ncnc21)C(=O)OCc1ccccc1 (stereo partly drawn) [G, (2S)-benzyl 2-(((((2R,3R,5S)-2-(6-amino-9H-purin-9-yl)-5-(hydroxymethyl)tetrahydro-furan-3-yl)oxy)(phenoxy)phosphoryl)amino)propanoate]
- IC50 ([1]; 72 h): 15 to 100 µM
- IC50 ([2]; HL-60, 72 h): 15 to 100 µM
- IC50 ([3]; HepG2, 72 h): 15 to 100 µM
- IC50 ([4]; K562, 72 h): 15 to 100 µM
- IC50 ([5]; KG-1, 72 h): 15 to 100 µM
- IC50 ([6]; MCF7, 72 h): 5 to 15 µM
- IC50 ([7]; MOLT-4, 72 h): 15 to 100 µM

Compound: C[C@H](NP(=O)(OC[C@@H]1C[C@@H](OP(=O)(N[C@@H](C)C(=O)OCc2ccccc2)Oc2ccccc2)[C@H](n2cnc3c(N)ncnc32)O1)Oc1ccccc1)C(=O)OCc1ccccc1 (stereo partly drawn) [H, Benzyl 2-(((((2S,4R,5R)-5-(6-amino-9H-purin-9-yl)-4-((((1-(benzyloxy)-1-oxopropan-2-yl)amino)(phenoxy)phosphoryl)oxy)tetrahydrofuran-2-yl)methoxy)(phenoxy)phosphoryl)-amino)propanoate]
- IC50 ([1]; 72 h): 15 to 100 µM
- IC50 ([2]; HL-60, 72 h): 15 to 100 µM
- IC50 ([3]; HepG2, 72 h): 5 to 15 µM
- IC50 ([4]; K562, 72 h): 15 to 100 µM
- IC50 ([5]; KG-1, 72 h): 15 to 100 µM
- IC50 ([6]; MCF7, 72 h): 0.1 to 5 µM
- IC50 ([7]; MOLT-4, 72 h): 15 to 100 µM

Compound: COc1nc(N)c2ncn([C@@H]3O[C@H](COP(=O)(N[C@@H](C)C(=O)OCc4ccccc4)Oc4cccc5ccccc45)C[C@H]3O)c2n1 (stereo partly drawn) [K]
- IC50 ([8]; 72 h): 5 to 15 µM
- IC50 ([9]; HT-29, 72 h): 15 to 100 µM
- IC50 ([10]; K562, 72 h): 15 to 100 µM
- IC50 ([11]; KG-1, 72 h): 15 to 100 µM
- IC50 ([12]; MCF7, 72 h): 5 to 15 µM
- IC50 ([13]; MOLT-4, 72 h): 15 to 100 µM
- IC50 ([14]; NCI-H929, 72 h): 5 to 15 µM
- IC50 ([15]; 72 h): 15 to 100 µM
